Reference: patent US9149475B2, “Protein kinase C inhibitors and uses thereof” (Rigel Pharmaceuticals, Inc., priority 2009, dated 2015)

System: Human primary T cells
Experiment: IL-2 ELISA, human primary T cell, anti-CD3+CD28+ (whole cell assay)
Assay type: cell-based
Details: Homo sapiens, T-cell, 24 h, human primary T cells stimulated with anti-CD3 + anti-CD28, 24 hours
In short: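 IL-2 secreted over 24 h at 37° C was quantified by ELISA after plate-bound αCD3 (1 μg/ml) and αCD28 (5 μg/ml) stimulation, or PMA (0.5 ng/ml) with ionomycin (0.1 μM) as counter-screen. Cells were IL-2-starved primary human T cells, expanded from volunteer PBMC and exposed to compound for 1 hr beforehand.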

| SMILES | IC50 [nM] |
| --- | --- |
| CC(=O)N1CCC(Oc2ccc(Nc3ncc(F)c(NC4CC(C)(C)NC(C)(C)C4)n3)cc2F)CC1 [III-13, 1-(4-(2-fluoro-4-(5-fluoro-4-(2,2,6,6-tetramethylpiperidin-4-ylamino)pyrimidin-2-ylamino)phenoxy)piperidin-1-yl)ethanone] | > 1000 |
| CN1C(C)(C)CC(Nc2nc(Nc3ccc(OC4CCN(S(C)(=O)=O)CC4)c(F)c3)ncc2F)CC1(C)C [III-14, 5-fluoro-N2-(3-fluoro-4-(1-(methylsulfonyl)piperidin-4-yloxy)phenyl)-N4-(1,2,2,6,6-pentamethylpiperidin-4-yl)pyrimidine-2,4-diamine] | > 1000 |
| CC1(C)CC(Nc2nc(Nc3ccc(OC4CCN(S(C)(=O)=O)CC4)c(F)c3)ncc2F)CC(C)(C)N1 [III-15, 5-fluoro-N2-(3-fluoro-4-(1-(methylsulfonyl)piperidin-4-yloxy)phenyl)-N4-(2,2,6,6-tetramethylpiperidin-4-yl)pyrimidine-2,4-diamine] | > 1000 |
| CCNC(=O)N1CCC(Oc2ccc(Nc3ncc(F)c(NC4CC(C)(C)N(C)C(C)(C)C4)n3)cc2F)CC1 [III-16, N-ethyl-4-(2-fluoro-4-(5-fluoro-4-(1,2,2,6,6-pentamethylpiperidin-4-ylamino)pyrimidin-2-ylamino)phenoxy)piperidine-1-carboxamide] | > 1000 |
| CCNC(=O)N1CCC(Oc2ccc(Nc3ncc(F)c(NC4CC(C)(C)NC(C)(C)C4)n3)cc2F)CC1 [III-17, N-ethyl-4-(2-fluoro-4-(5-fluoro-4-(2,2,6,6-tetramethylpiperidin-4-ylamino)pyrimidin-2-ylamino)phenoxy)piperidine-1-carboxamide] | > 1000 |
| CC(C)N1CCC(Oc2ccc(Nc3ncc(F)c(NC4CC(C)(C)N(C)C(C)(C)C4)n3)cc2F)CC1 [III-18, 5-fluoro-N2-(3-fluoro-4-(1-isopropylpiperidin-4-yloxy)phenyl)-N4-(1,2,2,6,6-pentamethylpiperidin-4-yl)pyrimidine-2,4-diamine] | < 250 |
| CC(C)N1CCC(Oc2ccc(Nc3ncc(F)c(NC4CC(C)(C)NC(C)(C)C4)n3)cc2F)CC1 [III-19, 5-fluoro-N2-(3-fluoro-4-(1-isopropylpiperidin-4-yloxy)phenyl)-N4-(2,2,6,6-tetramethylpiperidin-4-yl)pyrimidine-2,4-diamine] | 250 to 500 |
| CN1C(C)(C)CC(Nc2nc(Nc3ccc(OC4CCN(S(C)(=O)=O)CC4)c(OC(F)F)c3)ncc2F)CC1(C)C [III-20, N2-(3-(difluoromethoxy)-4-(1-(methylsulfonyl)piperidin-4-yloxy)phenyl)-5-fluoro-N4-(1,2,2,6,6-pentamethylpiperidin-4-yl)pyrimidine-2,4-diamine] | 250 to 500 |
| CC1(C)CC(Nc2nc(Nc3ccc(OC4CCN(S(C)(=O)=O)CC4)c(OC(F)F)c3)ncc2F)CC(C)(C)N1 [III-21, N2-(3-(difluoromethoxy)-4-(1-(methylsulfonyl)piperidin-4-yloxy)phenyl)-5-fluoro-N4-(2,2,6,6-tetramethylpiperidin-4-yl)pyrimidine-2,4-diamine] | 500 to 1000 |
| CN1C(C)(C)CC(Nc2nc(Nc3ccc(OC4CCOCC4)c(OC(F)F)c3)ncc2F)CC1(C)C [III-22, N2-(3-(difluoromethoxy)-4-(tetrahydro-2H-pyran-4-yloxy)phenyl)-5-fluoro-N4-(1,2,2,6,6-pentamethylpiperidin-4-yl)pyrimidine-2,4-diamine] | < 250 |
| CC1(C)CC(Nc2nc(Nc3ccc(OC4CCOCC4)c(OC(F)F)c3)ncc2F)CC(C)(C)N1 [III-23, N2-(3-(difluoromethoxy)-4-(tetrahydro-2H-pyran-4-yloxy)phenyl)-5-fluoro-N4-(2,2,6,6-tetramethylpiperidin-4-yl)pyrimidine-2,4-diamine] | 250 to 500 |
| CN1C(C)(C)CC(Nc2nc(Nc3ccc(OC4CCOCC4)c(F)c3)ncc2F)CC1(C)C [III-24, 5-fluoro-N2-(3-fluoro-4-(tetrahydro-2H-pyran-4-yloxy)phenyl)-N4-(1,2,2,6,6-pentamethylpiperidin-4-yl)pyrimidine-2,4-diamine] | 500 to 1000 |
| CN1C(C)(C)CC(Nc2nc(Nc3cc(F)c(OC4CCOCC4)c(F)c3)ncc2F)CC1(C)C [III-25, N2-(3,5-difluoro-4-(tetrahydro-2H-pyran-4-yloxy)phenyl)-5-fluoro-N4-(1,2,2,6,6-pentamethylpiperidin-4-yl)pyrimidine-2,4-diamine] | 500 to 1000 |
| CC1(C)CC(Nc2nc(Nc3cc(F)c(OC4CCOCC4)c(F)c3)ncc2F)CC(C)(C)N1 [III-26, N2-(3,5-difluoro-4-(tetrahydro-2H-pyran-4-yloxy)phenyl)-5-fluoro-N4-(2,2,6,6-tetramethylpiperidin-4-yl)pyrimidine-2,4-diamine] | 500 to 1000 |
| CN1C(C)(C)CC(Nc2nc(Nc3ccc(OC4CCNCC4)c(OC(F)F)c3)ncc2F)CC1(C)C [III-27, N2-(3-(difluoromethoxy)-4-(piperidin-4-yloxy)phenyl)-5-fluoro-N4-(1,2,2,6,6-pentamethylpiperidin-4-yl)pyrimidine-2,4-diamine] | 250 to 500 |
| CC1(C)CC(Nc2nc(Nc3ccc(OC4CCNCC4)c(OC(F)F)c3)ncc2F)CC(C)(C)N1 [III-28, N2-(3-(difluoromethoxy)-4-(piperidin-4-yloxy)phenyl)-5-fluoro-N4-(2,2,6,6-tetramethylpiperidin-4-yl)pyrimidine-2,4-diamine] | > 1000 |
| CN1C(C)(C)CC(Nc2nc(Nc3ccc(OC4CCS(=O)(=O)CC4)c(F)c3)ncc2F)CC1(C)C [III-29, N2-[4-(1,1-Dioxo-hexahydro-1λ6-thiopyran-4-yloxy)-3-fluoro-phenyl]-5-fluoro-N4-(1,2,2,6,6-pentamethyl-piperidin-4-yl)-pyrimidine-2,4-diamine] | > 1000 |
| CC1(C)CC(Nc2nc(Nc3ccc(OC4CCS(=O)(=O)CC4)c(OC(F)F)c3)ncc2F)CC(C)(C)N1 [III-32, N2-[3-Difluoromethoxy-4-(1,1-dioxo-hexahydro-1λ6-thiopyran-4-yloxy)-phenyl]-5-fluoro-N4-(2,2,6,6-tetramethyl-piperidin-4-yl)-pyrimidine-2,4-diamine] | > 1000 |
| CN1C(C)(C)CC(Nc2nc(Nc3ccc(OC4CCN(CC(N)=O)CC4)c(F)c3)ncc2F)CC1(C)C [III-33, 2-(4-(2-Fluoro-4-(5-fluoro-4-(1,2,2,6,6-pentamethylpiperidin-4-ylamino)pyrimidin-2-ylamino)phenoxy)piperidin-1-yl)acetamide] | > 1000 |
| CC1(C)CC(Nc2nc(Nc3ccc(OC4CCN(CC(N)=O)CC4)c(F)c3)ncc2F)CC(C)(C)N1 [III-34, 2-(4-(2-Fluoro-4-(5-fluoro-4-(2,2,6,6-tetramethylpiperidin-4-ylamino)pyrimidin-2-ylamino)phenoxy)piperidin-1-yl)acetamide] | > 1000 |
| CN1C(C)(C)CC(Nc2nc(Nc3ccc(OC4CCN(CC(N)=O)CC4)c(OC(F)F)c3)ncc2F)CC1(C)C [III-35, 2-(4-(2-(Difluoromethoxy)-4-(5-fluoro-4-(1,2,2,6,6-pentamethylpiperidin-4-ylamino)pyrimidin-2-ylamino)phenoxy)piperidin-1-yl)acetamide] | 250 to 500 |
| CC1(C)CC(Nc2nc(Nc3ccc(OC4CCN(CC(N)=O)CC4)c(OC(F)F)c3)ncc2F)CC(C)(C)N1 [III-36, 2-(4-(2-(Difluoromethoxy)-4-(5-fluoro-4-(2,2,6,6-tetramethylpiperidin-4-ylamino)pyrimidin-2-ylamino)phenoxy)piperidin-1-yl)acetamide] | > 1000 |
| CN1C(C)(C)CC(Nc2nc(Nc3ccc(OC4CCN(CCO)CC4)c(OC(F)F)c3)ncc2F)CC1(C)C [III-37, 2-(4-(2-(Difluoromethoxy)-4-(5-fluoro-4-(1,2,2,6,6-pentamethylpiperidin-4-ylamino)pyrimidin-2-ylamino)phenoxy)piperidin-1-yl)ethanol] | < 250 |
| CC1(C)CC(Nc2nc(Nc3ccc(OC4CCN(CCO)CC4)c(OC(F)F)c3)ncc2F)CC(C)(C)N1 [III-38, 2-(4-(2-(Difluoromethoxy)-4-(5-fluoro-4-(2,2,6,6-tetramethylpiperidin-4-ylamino)pyrimidin-2-ylamino)phenoxy)piperidin-1-yl)ethanol] | 500 to 1000 |
| CC(C)N1CC(Oc2ccc(Nc3ncc(F)c(NC4CC(C)(C)NC(C)(C)C4)n3)cc2OC(F)F)C1 [III-39, N2-(3-(Difluoromethoxy)-4-(1-isopropylazetidin-3-yloxy)phenyl)-5-fluoro-N4-(2,2,6,6-tetramethylpiperidin-4-yl)pyrimidine-2,4-diamine] | 500 to 1000 |
| CC(C)N1CCCC(Oc2ccc(Nc3ncc(F)c(NC4CC(C)(C)NC(C)(C)C4)n3)cc2OC(F)F)CC1 (centres unmarked) [III-40, N2-(3-(difluoromethoxy)-4-(1-isopropylazepan-4-yloxy)phenyl)-5-fluoro-N4-(2,2,6,6-tetramethylpiperidin-4-yl)pyrimidine-2,4-diamine] | 250 to 500 |
| CC(C)N1CCCC(Oc2ccc(Nc3ncc(F)c(NC4CC(C)(C)N(C)C(C)(C)C4)n3)cc2OC(F)F)CC1 (centres unmarked) [III-41, N2-(3-(difluoromethoxy)-4-(1-isopropylazepan-4-yloxy)phenyl)-5-fluoro-N4-(1,2,2,6,6-pentamethylpiperidin-4-yl)pyrimidine-2,4-diamine] | < 250 |
| CC(=O)N1CCCC(Oc2ccc(Nc3ncc(F)c(NC4CC(C)(C)NC(C)(C)C4)n3)cc2OC(F)F)CC1 (centres unmarked) [III-42, 1-(4-(2-(difluoromethoxy)-4-(5-fluoro-4-(2,2,6,6-tetramethylpiperidin-4-ylamino)pyrimidin-2-ylamino)phenoxy)azepan-1-yl)ethanone] | 500 to 1000 |
| CC(=O)N1CCCC(Oc2ccc(Nc3ncc(F)c(NC4CC(C)(C)N(C)C(C)(C)C4)n3)cc2OC(F)F)CC1 (centres unmarked) [III-43, 1-(4-(2-(difluoromethoxy)-4-(5-fluoro-4-(1,2,2,6,6-pentamethylpiperidin-4-ylamino)pyrimidin-2-ylamino)phenoxy)azepan-1-yl)ethanone] | < 250 |
